Results from article PMC8253220, “Molecular design, synthesis and in vitro biological evaluation of thienopyrimidine–hydroxamic acids as chimeric kinase HDAC inhibitors: a challenging approach to combat cancer” (Journal of Enzyme Inhibition and Medicinal Chemistry, 2021).
Where “and” joins values, the source holds several entries; their conditions need not be identical. Equal values may be shown once.

Key:
Assay in all cases: NCI one-dose screen
Type in all cases: cell-based, human
SW-620 = conditions: Colon SW-620, 10 µM single dose
How it was run: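 Following the standard NCI-60 protocol, compounds were applied once at 10 μM to all 60 cancer lines. Read-out is percent growth versus untreated controls, expressed as inhibition %.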

UO-31 = conditions: Renal UO-31, 10 µM single dose
How it was run: (§1)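 Single dose of 10 μM tested across the full NCI-60 cell panel. Values are percent growth inhibition relative to untreated control cells, following standard NCI methodology.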

RPMI-8226 = conditions: Leukemia RPMI-8226, 10 µM single dose
How it was run: (§2)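 At 10 μM, a single concentration, compounds were evaluated for antiproliferative effect in the NCI 60-line screen, with growth expressed relative to untreated control cells.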

OVCAR-4 = conditions: Ovarian OVCAR-4, 10 µM single dose
How it was run: as §2

MDA-MB-435 = conditions: Melanoma MDA-MB-435, 10 µM single dose
How it was run: as §2

NCI-H322M = conditions: NSCLC NCI-H322M, 10 µM single dose
How it was run: as §2

HOP-62 = conditions: NSCLC HOP-62, 10 µM single dose
How it was run: (§3)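 One concentration (10 μM) applied to each line of the full NCI-60 panel; percent growth compared against untreated cells.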

HS 578T = conditions: Breast HS 578T, 10 µM single dose
How it was run: as §2

SNB-75 = conditions: CNS SNB-75, 10 µM single dose
How it was run: as §1

SK-OV-3 = conditions: Ovarian SK-OV-3, 10 µM single dose
How it was run: as §2

HCC-2998 = conditions: Colon HCC-2998, 10 µM single dose
How it was run: as §2

NCI-H522 = conditions: NSCLC NCI-H522, 10 µM single dose
How it was run: as §1

OVCAR-5 = conditions: Ovarian OVCAR-5, 10 µM single dose
How it was run: as §2

MALME-3M = conditions: Melanoma MALME-3M, 10 µM single dose
How it was run: as §2

SK-MEL-5 = conditions: Melanoma SK-MEL-5, 10 µM single dose
How it was run: as §2

HL-60(TB) = conditions: Leukemia HL-60(TB), 10 µM single dose
How it was run: as §2

SK-MEL-2 = conditions: Melanoma SK-MEL-2, 10 µM single dose
How it was run: as §3

NCI-H226 = conditions: NSCLC NCI-H226, 10 µM single dose
How it was run: as §1

RXF 393 = conditions: Renal RXF 393, 10 µM single dose
How it was run: as §2

TK-10 = conditions: Renal TK-10, 10 µM single dose
How it was run: as §2

DU-145 = conditions: Prostate DU-145, 10 µM single dose
How it was run: as §2

LOX IMVI = conditions: Melanoma LOX IMVI, 10 µM single dose
How it was run: as §2

SR = conditions: Leukemia SR, 10 µM single dose
How it was run: as §2

IGROV1 = conditions: Ovarian IGROV1, 10 µM single dose
How it was run: as §2

SF-268 = conditions: CNS SF-268, 10 µM single dose
How it was run: (§4)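 Single 10 μM dose, NCI-60 panel; read-out = % growth vs untreated controls → % inhibition.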

SN12C = conditions: Renal SN12C, 10 µM single dose
How it was run: as §2

SF-539 = conditions: CNS SF-539, 10 µM single dose
How it was run: as §4

CCRF-CEM = conditions: Leukemia CCRF-CEM, 10 µM single dose
How it was run: as §2

M14 = conditions: Melanoma M14, 10 µM single dose
How it was run: as §2

786-0 = conditions: Renal 786-0, 10 µM single dose
How it was run: as §2

SNB-19 = conditions: CNS SNB-19, 10 µM single dose
How it was run: as §3

EKVX = conditions: NSCLC EKVX, 10 µM single dose
How it was run: as §1

A549/ATCC = conditions: NSCLC A549/ATCC, 10 µM single dose
How it was run: as §2

CAKI-1 = conditions: Renal CAKI-1, 10 µM single dose
How it was run: as §2

HCT-116 = conditions: Colon HCT-116, 10 µM single dose
How it was run: as §2

HT29 = conditions: Colon HT29, 10 µM single dose
How it was run: as §2

COLO 205 = conditions: Colon COLO 205, 10 µM single dose
How it was run: as §2

COc1cccc(NC(=O)Nc2ccc(Nc3ncnc4sc(C(=O)NCCC(=O)NO)c(C)c34)cc2)c1 [Compound 11b, 1–(4-(6-((3-(hydroxyamino)-3-oxopropyl)carbamoyl)-5-methylthieno[2,3-d]pyrimidin-4-ylamino)phenyl)-3–(3-methoxyphenyl)urea]
Growth Percent (SW-620): 103.0% and 103.05% | Growth Percent (UO-31): 83.4% and 83.44% | Growth Percent (RPMI-8226): 110.5% | Growth Percent (OVCAR-4): 91.0% and 91.01% | Growth Percent (MDA-MB-435): 100.8% and 100.85% | Growth Percent (NCI-H322M): 100.7% and 100.74% | Growth Percent (HOP-62): 103.2% and 103.23% | Growth Percent (HS 578T): 100.7% | Growth Percent (SNB-75): 83.7% and 83.79% | Growth Percent (SK-OV-3): 123.7% and 123.78% | Growth Percent (HCC-2998): 103.8% and 103.81% | Growth Percent (NCI-H522): 94.6% and 94.61% | Growth Percent (OVCAR-5): 101.9% and 101.91% | Growth Percent (MALME-3M): 107.0% and 107.03% | Growth Percent (SK-MEL-5): 95.8% and 95.84% | Growth Percent (HL-60(TB)): 103.9% and 103.99% | Growth Percent (SK-MEL-2): 116.4% and 116.43% | Growth Percent (NCI-H226): 87.7% and 87.79% | Growth Percent (RXF 393): 104.1% | Growth Percent (TK-10): 109.9% and 109.96% | Growth Percent (DU-145): 102.0% and 102.08% | Growth Percent (LOX IMVI): 91.6% and 91.65% | Growth Percent (SR): 112.2% and 112.27% | Growth Percent (IGROV1): 104.1% and 104.14% | Growth Percent (SF-268): 94.3% and 94.39% | Growth Percent (SN12C): 105.1% and 105.11% | Growth Percent (SF-539): 98.0% and 98.07% | Growth Percent (CCRF-CEM): 105.0% and 105.08% | Growth Percent (M14): 92.9% and 92.95% | Growth Percent (786-0): 101.3% and 101.34% | Growth Percent (SNB-19): 98.1% | Growth Percent (EKVX): 90.7% and 90.77% | Growth Percent (A549/ATCC): 96.2% and 96.21% | Growth Percent (CAKI-1): 95.6% and 95.62% | Growth Percent (HCT-116): 101.6% and 101.62% | Growth Percent (HT29): 104.4% and 104.43% | Growth Percent (COLO 205): 113.1% and 113.15%
